Active and inactive are the calls of the source. The calls are words filed in the database; no cut-off is given here.
Columns and labels:
Bacillus subtilis = assay: Antibacterial activity against Bacillus subtilis at 10 ug/disk by disc-diffusion assay; assay type: functional, organism-based
Staphylococcus aureus = assay: Antibacterial activity against Staphylococcus aureus at 25 ug/disk by disc-diffusion assay; assay type: functional, organism-based

CC(C)[C@H]1CC[C@@H](C)C2=CC[C@](C)(NC=O)C[C@@H]21 (relative stereo)
Activity (Bacillus subtilis): Active | Activity (Staphylococcus aureus): Active

Reference: ChEMBL document CHEMBL1159218, “Metabolites of the Palauan sponge Axinyssa aplysinoides” (J Nat Prod, 1995)
